# From patent EP0394553A2, “Use of fluorine containing pyridone carboxylic acid derivatives for preparing a medicament for the treatment of HIV infections” (DAIICHI PHARMACEUTICAL CO., LTD., priority 1989, dated 1990)
# Tested on: HIV (LAV 1)
# Test: microbe, parasite or virus in culture
# Method: Human T cell-derived, T4 antigen-positive CEM cells (provided by the Institut Pasteur, France) were used as host cells of HIV. Cell culture was carried out in a carbon dioxide-containing atmosphere in an incubator maintained at 37°C according to a conventional method [cf. […] The culture supernatant (5×10⁶ TCID₅₀/ml) obtained by subjecting CEM cells to HIV (LAV 1) infection and stored at -70°C was used as the HIV source.
# The medium for cell culture (10 ml) placed in a plastic culture flask (25 cm²) was inoculated with CEM cells at a cell density of 2.5×10⁵ cells/ml. After 3 days of incubation, the culture was transferred to a 15-ml centrifuge tube and subjected to centrifugation at 1,000 revolutions per minute for 5 minutes for sedimentation of cells and removal of the culture medium.
# The stock viral suspension was added to the host cells thus prepared to an MOI of 0.05 and the mixture was maintained at 37°C for 90 minutes with stirring at 30-minute intervals for viral adsorption. The medium was added to HIV-infected cells to a cell density of 5.0×10⁵ cells/ml to give an HIV-infected cell suspension.
# A mixture (1.0 ml) of the three constituents mentioned below was added to each well of a 24-well plastic culture plate and the test substance final concentration was adjusted to 10 mcg/ml, 5 mcg/ml, 2.5 mcg/ml or 1 mcg/ml. The "no addition" wells (0 mcg/ml) served as controls.
# After 4 days of incubation following viral infection, the cells in each well on the 24-well culture plate were suspended uniformly by pipetting and a 0.5-ml portion of the suspension was separated. A 2.0-ml portion of test substance-free fresh medium was added to the remaining 0.5-ml portion of the cell suspension, followed by incubation.
# Seven days after viral infection, pipetting was performed to give a uniform cell suspension in each well and a 0.5-ml portion of the suspension was separated.
# Incubation was continued and, 10 days after viral infection, a uniform cell suspension was produced in the same manner in each well and a 1.5-ml portion thereof was separated. A fresh 2.0-ml portion of the medium free of (or containing) the test substance was added to the well, followed by further incubation.
# Fifteen days after viral infection, the cells in each well were suspended uniformly in the same manner in the medium and a 2.0-ml portion of the suspension was separated. A fresh 2.0-ml portion of the medium free of (or containing) the test substance was added to the remaining 0.5 ml of the cell suspension and incubation was continued.
# Medium exchange was performed in the same manner 20 days and 25 days after viral infection.
# The cell suspensions collected 4 days, 7 days, 10 days, 20 days and 30 days after viral infection were tested for viable cell count and viable cell percentage by trypan blue staining. At the same time, viral antigen-positive cell percentage determination was carried out by immunofluorescence using an anti-HIV antiserum isolated from a healthy carrier of HIV.
# The numerical values given each is the mean for the respective two wells on the culture plate. The viable cell count is the total cell count minus the count of dead cells stained with trypan blue. The viable cell percentage is the percentage of viable cells among all the cells including dead cells. The viral antigen-positive cell percentage is the percentage of cells indicating antigen expression as found among all the cells including dead cells.
# [1] = 1 mcg/ml, 4-day addition, after 4 days
# [2] = 1 mcg/ml, 4-day addition, after 7 days
# [3] = 1 mcg/ml, 4-day addition, after 10 days
# [4] = 1 mcg/ml, 4-day addition, after 20 days
# [5] = 1 mcg/ml, continuous addition, after 4 days
# [6] = 1 mcg/ml, continuous addition, after 7 days
# [7] = 1 mcg/ml, continuous addition, after 10 days
# [8] = 2.5 mcg/ml, 4-day addition, after 4 days
# [9] = 2.5 mcg/ml, 4-day addition, after 7 days
# [10] = 2.5 mcg/ml, 4-day addition, after 10 days
# [11] = 2.5 mcg/ml, 4-day addition, after 20 days
# [12] = 2.5 mcg/ml, 4-day addition, after 30 days
# [13] = 2.5 mcg/ml, continuous addition, after 4 days
# [14] = 2.5 mcg/ml, continuous addition, after 7 days
# [15] = 2.5 mcg/ml, continuous addition, after 10 days
# [16] = 2.5 mcg/ml, continuous addition, after 20 days
# [17] = 2.5 mcg/ml, continuous addition, after 30 days
# [18] = 5 mcg/ml, 4-day addition, after 4 days
# [19] = 5 mcg/ml, 4-day addition, after 7 days
# [20] = 5 mcg/ml, 4-day addition, after 10 days
# [21] = 5 mcg/ml, 4-day addition, after 20 days
# [22] = 5 mcg/ml, 4-day addition, after 30 days
# [23] = 5 mcg/ml, continuous addition, after 4 days
# [24] = 5 mcg/ml, continuous addition, after 7 days
# [25] = 5 mcg/ml, continuous addition, after 10 days
# [26] = 5 mcg/ml, continuous addition, after 20 days
# [27] = 5 mcg/ml, continuous addition, after 30 days
# [28] = 10 mcg/ml, 4-day addition, after 4 days
structure (smiles),measurement,setting,value
"CC1COc2c(N3CCN(C)CC3)c(F)cc3c(=O)c(C(=O)O)cn1c23 (racemic) [OFLX, (±)-9-fluoro-3-methyl-10-(4-methyl-1-piperazinyl)-7-oxo-2,3-dihydro-7H-pyrido[1,2,3-de][1,4]benzoxazine-6-carboxylic acid]",Viable cell count,[1],260 × 10⁴ cells/ml
same,Viral antigen-positive cell percentage,[1],88%
same,Viable cell count,[2],43 × 10⁴ cells/ml
same,Viral antigen-positive cell percentage,[2],80%
same,Viable cell count,[3],13 × 10⁴ cells/ml
same,Viral antigen-positive cell percentage,[3],77%
same,Viable cell count,[4],34 × 10⁴ cells/ml
same,Viral antigen-positive cell percentage,[4],16%
same,Viable cell count,"1 mcg/ml, 4-day addition, after 30 days",10 × 10⁴ cells/ml
same,Viable cell count,[5],300 × 10⁴ cells/ml
same,Viral antigen-positive cell percentage,[5],82%
same,Viable cell count,[6],39 × 10⁴ cells/ml
same,Viral antigen-positive cell percentage,[6],78%
same,Viable cell count,[7],46 × 10⁴ cells/ml
same,Viral antigen-positive cell percentage,[7],85%
same,Viable cell count,"1 mcg/ml, continuous addition, after 20 days",15 × 10⁴ cells/ml
same,Viable cell count,"1 mcg/ml, continuous addition, after 30 days",11 × 10⁴ cells/ml
same,Viable cell count,[8],260 × 10⁴ cells/ml
same,Viral antigen-positive cell percentage,[8],80%
same,Viable cell count,[9],58 × 10⁴ cells/ml
same,Viral antigen-positive cell percentage,[9],67%
same,Viable cell count,[10],83 × 10⁴ cells/ml
same,Viral antigen-positive cell percentage,[10],49%
same,Viable cell count,[11],300 × 10⁴ cells/ml
same,Viral antigen-positive cell percentage,[11],4%
same,Viable cell count,[12],300 × 10⁴ cells/ml
same,Viral antigen-positive cell percentage,[12],6%
same,Viable cell count,[13],260 × 10⁴ cells/ml
same,Viral antigen-positive cell percentage,[13],83%
same,Viable cell count,[14],59 × 10⁴ cells/ml
same,Viral antigen-positive cell percentage,[14],62%
same,Viable cell count,[15],110 × 10⁴ cells/ml
same,Viral antigen-positive cell percentage,[15],38%
same,Viable cell count,[16],220 × 10⁴ cells/ml
same,Viral antigen-positive cell percentage,[16],17%
same,Viable cell count,[17],360 × 10⁴ cells/ml
same,Viral antigen-positive cell percentage,[17],10%
same,Viable cell count,[18],250 × 10⁴ cells/ml
same,Viral antigen-positive cell percentage,[18],82%
same,Viable cell count,[19],60 × 10⁴ cells/ml
same,Viral antigen-positive cell percentage,[19],50%
same,Viable cell count,[20],170 × 10⁴ cells/ml
same,Viral antigen-positive cell percentage,[20],33%
same,Viable cell count,[21],320 × 10⁴ cells/ml
same,Viral antigen-positive cell percentage,[21],5%
same,Viable cell count,[22],330 × 10⁴ cells/ml
same,Viral antigen-positive cell percentage,[22],4%
same,Viable cell count,[23],340 × 10⁴ cells/ml
same,Viral antigen-positive cell percentage,[23],75%
same,Viable cell count,[24],58 × 10⁴ cells/ml
same,Viral antigen-positive cell percentage,[24],76%
same,Viable cell count,[25],160 × 10⁴ cells/ml
same,Viral antigen-positive cell percentage,[25],40%
same,Viable cell count,[26],300 × 10⁴ cells/ml
same,Viral antigen-positive cell percentage,[26],11%
same,Viable cell count,[27],290 × 10⁴ cells/ml
same,Viral antigen-positive cell percentage,[27],2%
same,Viable cell count,[28],260 × 10⁴ cells/ml
same,Viral antigen-positive cell percentage,[28],74%
